According to patent publication US20260285850A1, “SUBSTITUTED OXAZOLIDINONES AND IMIDAZOLINONES AS HERBICIDES” (FMC CORPORATION, priority 2023, published 2026):

Columns and labels:
Type in all cases: in vivo
[1] = system: oat, wild (wild oat, Avena fatua); assay: Test A postemergence application, visual injury rating 0-100; conditions: 10 days
Description: (§1) Seeds of plant species selected from barnyardgrass (Echinochloa crus-galli), blackgrass (Alopecurus myosuroides), corn (Zea mays), foxtail, giant (giant foxtail, Setaria faberi), green foxtail (Setaria viridis), goosegrass (Eleusine indica), kochia (Bassia scoparia), oat, wild (wild oat, Avena fatua), palmer (palmer amaranth, palmer pigweed, Amaranthus palmeri), ragweed (common ragweed, Ambrosia artemisiifolia), ryegrass, Italian (italian ryegrass, Lolium multiflorum), soybean (Glycine max) and wheat (Triticum aestivum) were planted into a blend of loam soil and sand and treated preemergence with a directed soil spray using test chemicals formulated in a non-phytotoxic solvent mixture which included a surfactant.
(§2) At the same time, plants selected from these crops and weed species and also galium (catchweed bedstraw, Galium aparine) and horseweed (Erigeron canadensis) were planted in pots containing the same blend of loam soil and sand and treated with postemergence applications of test chemicals formulated in the same manner. Plants ranged in height from 2 to 10 cm and were in the one- to two-leaf stage for the postemergence treatment. Treated plants and untreated controls were maintained in a greenhouse for 10 days, after which time all treated plants were compared to untreated controls and visually evaluated for injury. Plant response ratings, summarized in Table A, are based on a 0 to 100 scale where 0 is no effect and 100 is complete control. A dash (-) response means no test result.

[2] = system: barnyardgrass (Echinochloa crus-galli); assay: as above; conditions: 10 days
Description: as §1, §2

[3] = system: horseweed (Erigeron canadensis); assay: as above; conditions: 10 days
Description: as §1, §2

[4] = system: corn (Zea mays); assay: as above; conditions: 10 days
Description: as §1, §2

[5] = system: wheat (Triticum aestivum); assay: as above; conditions: 10 days
Description: as §1, §2

[6] = system: ragweed (common ragweed, Ambrosia artemisiifolia); assay: as above; conditions: 10 days
Description: as §1, §2

[7] = system: kochia (Bassia scoparia); assay: as above; conditions: 10 days
Description: as §1, §2

[8] = system: ryegrass, Italian (italian ryegrass, Lolium multiflorum); assay: as above; conditions: 10 days
Description: as §1, §2

[9] = system: green foxtail (Setaria viridis); assay: as above; conditions: 10 days
Description: as §1, §2

[10] = system: palmer (palmer amaranth, palmer pigweed, Amaranthus palmeri); assay: as above; conditions: 10 days
Description: as §1, §2

[11] = system: soybean (Glycine max); assay: as above; conditions: 10 days
Description: as §1, §2

[12] = system: blackgrass (Alopecurus myosuroides); assay: as above; conditions: 10 days
Description: as §1, §2

[13] = system: oat, wild (wild oat, Avena fatua); assay: Test A preemergence soil spray, visual injury rating 0-100; conditions: 10 days, 0 = no effect, 100 = complete control
Description: as §1, §2

[14] = system: barnyardgrass (Echinochloa crus-galli); assay: as above; conditions: 10 days, 0 = no effect, 100 = complete control
Description: as §1, §2

[15] = system: corn (Zea mays); assay: as above; conditions: 10 days, 0 = no effect, 100 = complete control
Description: as §1, §2

[16] = system: wheat (Triticum aestivum); assay: as above; conditions: 10 days, 0 = no effect, 100 = complete control
Description: as §1, §2

[17] = system: ragweed (common ragweed, Ambrosia artemisiifolia); assay: as above; conditions: 10 days, 0 = no effect, 100 = complete control
Description: as §1, §2

[18] = system: kochia (Bassia scoparia); assay: as above; conditions: 10 days, 0 = no effect, 100 = complete control
Description: as §1, §2

[19] = system: ryegrass, Italian (italian ryegrass, Lolium multiflorum); assay: as above; conditions: 10 days, 0 = no effect, 100 = complete control
Description: as §1, §2

[20] = system: green foxtail (Setaria viridis); assay: as above; conditions: 10 days, 0 = no effect, 100 = complete control
Description: as §1, §2

[21] = system: palmer (palmer amaranth, palmer pigweed, Amaranthus palmeri); assay: as above; conditions: 10 days, 0 = no effect, 100 = complete control
Description: as §1, §2

[22] = system: soybean (Glycine max); assay: as above; conditions: 10 days, 0 = no effect, 100 = complete control
Description: as §1, §2

[23] = system: blackgrass (Alopecurus myosuroides); assay: as above; conditions: 10 days, 0 = no effect, 100 = complete control
Description: as §1, §2

[24] = 31 g ai/ha, postemergence, 0 = no effect, 100 = complete control
[25] = Postemergence, 125 g ai/ha, 0 is no effect, 100 is complete control

Which results are given for `CONC(=O)C1CC(NC(=O)C2(C)CN(c3cc(F)cc(F)c3)C(=O)O2)CO1` (stereo not shown) [Compound 40]?
Oat, Wild plant response rating (0-100) [1, 24]: 90; Oat, Wild plant response rating (0 to 100 scale) [1, 25]: 90; Barnyardgrass plant response rating (0-100) [2, 24]: 10; Barnyardgrass plant response rating (0 to 100 scale) [2, 25]: 100; Horseweed plant response rating (0-100) [3, 24]: 30; Horseweed plant response rating (0 to 100 scale) [3, 25]: 0; Corn plant response rating (0-100) [4, 24]: 20; Corn plant response rating (0 to 100 scale) [4, 25]: 100; Wheat plant response rating (0-100) [5, 24]: 70; Wheat plant response rating (0 to 100 scale) [5, 25]: 80; Ragweed plant response rating (0-100) [6, 24]: 0; Ragweed plant response rating (0 to 100 scale) [6, 25]: 20; Kochia plant response rating (0-100) [7, 24]: 0; Kochia plant response rating (0 to 100 scale) [7, 25]: 70; Ryegrass, Italian plant response rating (0-100) [8, 24]: 20; Ryegrass, Italian plant response rating (0 to 100 scale) [8, 25]: 60; Foxtail, Green plant response rating (0-100) [9, 24]: 0; Foxtail, Green plant response rating (0 to 100 scale) [9, 25]: 90; Amaranth, Palmer plant response rating (0-100) [10, 24]: 0; Amaranth, Palmer / Pigweed, Palmer plant response rating (0 to 100 scale) [10, 25]: 30; Soybean plant response rating (0-100) [11, 24]: 0; Soybean plant response rating (0 to 100 scale) [11, 25]: 60; Blackgrass plant response rating (0-100) [12, 24]: 100; Blackgrass plant response rating (0 to 100 scale) [12, 25]: 100; Oat, Wild plant response rating (0-100) ([13]; 31 g ai/ha): 50; Oat, Wild plant response rating (0 to 100 scale) ([13]; 125 g ai/ha): 90; Barnyardgrass plant response rating (0-100) ([14]; 31 g ai/ha): 0; Barnyardgrass plant response rating (0 to 100 scale) ([14]; 125 g ai/ha): 30; Corn plant response rating (0-100) ([15]; 31 g ai/ha): 0; Corn plant response rating (0 to 100 scale) ([15]; 125 g ai/ha): 0; Wheat plant response rating (0-100) ([16]; 31 g ai/ha): 50; Wheat plant response rating (0 to 100 scale) ([16]; 125 g ai/ha): 90; Ragweed plant response rating (0-100) ([17]; 31 g ai/ha): 0; Ragweed plant response rating (0 to 100 scale) ([17]; 125 g ai/ha): 0; Kochia plant response rating (0-100) ([18]; 31 g ai/ha): 0; Kochia plant response rating (0 to 100 scale) ([18]; 125 g ai/ha): 0; Ryegrass, Italian plant response rating (0-100) ([19]; 31 g ai/ha): 20; Ryegrass, Italian plant response rating (0 to 100 scale) ([19]; 125 g ai/ha): 90; Foxtail, Green plant response rating (0-100) ([20]; 31 g ai/ha): 0; Foxtail, Green plant response rating (0 to 100 scale) ([20]; 125 g ai/ha): 20; Amaranth, Palmer plant response rating (0-100) ([21]; 31 g ai/ha): 0; Amaranth, Palmer plant response rating (0 to 100 scale) ([21]; 125 g ai/ha): 0; Soybean plant response rating (0-100) ([22]; 31 g ai/ha): 0; Soybean plant response rating (0 to 100 scale) ([22]; 125 g ai/ha): 10; Blackgrass plant response rating (0-100) ([23]; 31 g ai/ha): 50; Blackgrass plant response rating (0 to 100 scale) ([23]; 125 g ai/ha): 80
